The values below come from patent publication US20230212571A1, “COMPOSITIONS AND METHODS FOR DELIVERING POLYNUCLEOTIDES” (NeOnc Technologies, Inc., priority 2020, published 2023).

Series [1] concerns AVM-BEC. In words: Human Notch Signaling Pathway PCR array in AVM-BEC. The format is cell-based. As to the method:
MiR-18a (hsa-miR-18a-5p, 40 nM, Dharmacon) or a scramble microRNA (40 nM, Dharmacon) in nuclease-free water was added with argonaute 2 (Ago-2, 0.4 nM, Abcam) as the microRNA carrier and stabilizer^9. (Ferreira R, Santos T, Amar A, et al. Argonaute-2 promotes miR-18a entry in human brain endothelial cells. J Am Heart Assoc. 2014; 3(3):e000968). No transfection reagent was used with miR-18a or scramble microRNA treatments. Recombinant human TSP-1 (R&D Systems) stock solution was prepared in PBS and further diluted in culture medium to be used at a final concentration of 1000 ng/mL. Cells were treated during 24 h for mRNA and 48 h for protein expression studies. NEO100 (NeOnc Technologies) stock was prepared in DMSO and used immediately or stored at −20° C.
The extraction and analysis of total mRNA and microRNAs were described^9,13. (Ferreira R, Santos T, Amar A, et al. Argonaute-2 promotes miR-18a entry in human brain endothelial cells. J Am Heart Assoc. 2014; 3(3):e000968) (Marín-Ramos N I, Jhaveri N, Thein T Z, Fayngor R A, Chen T C, Hofman F M. NEO212, a conjugate of temozolomide and perillyl alcohol, blocks the endothelial-to-mesenchymal transition in tumor-associated brain endothelial cells in glioblastoma. Cancer Lett. 2018; 442:170-180). The Human Notch Signaling Pathway RT^2 Profiler PCR Array (Qiagen) was used to analyze the expression of 84 genes related to Notch signaling. For mRNA studies, […] (B2M) was measured for sample normalization. The primer sequences were included in Table 2. For microRNA analysis, RNU44 and U6 snRNA TaqMan microRNA Control Assays were used for normalization of human and mice samples, respectively.

Series [2] is described as follows: Pharmacokinetic study of miR-18a in serum and brain by RT-qPCR. The format is in vivo, C57BL/6 mice. An excerpt:
All animal protocols were approved by the USC's Institutional Animal Care and Use Committee (IACUC) and strictly adhered to. MiR-18a was co-administered with Ago-2 (0.0008 nmol/mouse) to increase stability and cellular uptake^9 (Ferreira R, Santos T, Amar A, et al. Argonaute-2 promotes miR-18a entry in human brain endothelial cells. J Am Heart Assoc. 2014; 3(3):e000968). (FIG. 9). Details about randomization, blinding, group size and inclusion/exclusion criteria have been included in Methods.
For pharmacokinetic measurements, 0.8 nmol/mouse of miR-18a were administered IV or IN to C57BL/6 mice. At the indicated time points, mice were euthanized, and the serum and brains were collected and flash-frozen in liquid nitrogen (n=6 per time-point and condition). MicroRNAs were isolated using the mirVana™ miRNA Isolation Kit and measured by RT-qPCR as described above.

The test system of series [3] is AVM-BEC. Briefly: Immunostaining of MMP2 and MMP9 in AVM-BEC. The format is cell-based, human. On the procedure: Immunostaining was performed as previously described^15. (Virrey J J, Golden E B, Sivakumar W, et al. Glioma-associated endothelial cells are chemoresistant to temozolomide. J Neurooncol. 2009; 95(1):13-22). Primary antibodies used were rabbit anti-MMP2, mouse anti-MMP9 (1:150, Abgent), rabbit anti-phospho-Smad1/5 (Ser463/465) (1:50, Abgent), rabbit anti-BMP4, rabbit anti-PAI-1 (1:50, Proteintech), rabbit anti-VEGF (1:50, Santa Cruz Biotechnology), rabbit anti-HIF-1α (1:50, Cell Signaling Technology), and rabbit anti-phospho-Smad3 (Ser423/425) (1:50, GeneTex). Secondary antibodies used were biotinylated anti-rabbit and biotinylated anti-mouse (1:300, Vector Laboratories), accordingly. Pictures were taken in an Eclipse 80i microscope (Nikon). Images shown are representative of three-five independent experiments.

Series [4] deals with Mgp^−/− mouse model of AVM. In words: Organ histology and complete blood count. The format is in vivo. Particulars: Mgp^−/− mice, IN 2-weeks. As to the method: In vivo efficacy studies were performed using 3-week-old Mgp^+/- C57BL/6 mice^16,17 (Yao Y, Jumabay M, Wang A, Boström K I. Matrix Gla protein deficiency causes arteriovenous malformations in mice. J Clin Invest. 2011; 121(8):2993-3004) (Yao Y, Yao […], et al. Reducing Jagged 1 and 2 levels prevents cerebral arteriovenous malformations in matrix Gla protein deficiency. Proc Nat Acad Sci USA. 2013; 110(47):19071-19076). provided by Dr. Yucheng Yao (UCLA, Los Angeles) and mated to obtain the appropriate genotypes. Only about 10-15% of each litter were born with the Mgp^-/- genotype, and among those, only about 45% survived until the end of the treatment and/or the imaging of the brain vasculature, due to the extreme severity of the disease in this mouse model. These animals not only suffer AVMs in the brain, but all major organs are also affected and dysfunctional. Thus, […] might die due to several causes, including stroke, severe lung inflammation that causes respiratory failure-especially when anesthesia is used-, organ failure due to liver and/or spleen malfunction, heart failure, etc., drastically limiting the number of the Mgp^-/- mice available for the CTA studies. […] Treatment with 0.08 nmol/mouse of miR-18a or scramble microRNA was administered IN daily for 2-weeks. 2.5 μL/nostril were delivered in RNase-free water. Ultra-high-resolution in vivo computed tomography angiography (CTA) was performed in mice for 3D imaging of whole brain vascular architecture^18, ([…], Rendon D, et al. Ultra-High-Resolution In vivo Computed Tomography Imaging of Mouse Cerebrovasculature Using a Long Circulating Blood Pool Contrast Agent. Scientific reports. 2015; 5:10178) as described in Data. The vascular data was quantified using ImageJ. Regions of interest encompassing the Circle of Willis (CoW) and the azygous of the anterior cerebral artery (AzACA) and its branches were selected in CT images using thick slab maximum intensity projection (MIP) or 3D volume rendering. The images were converted to 8-bit grayscale and thresholded to highlight the vasculature containing pixels. The pixels were analyzed as particles and normalized to results from the wildtype mice (WT, Mgp^+/+). Immediately after imaging, mice were euthanized, and brains were frozen in Clear Frozen Section Compound (VWR) and stored at -80° C. Blood was collected for complete blood count (Antech). The lungs, livers, spleens, femurs, and kidneys were harvested and fixed in 10% formalin. Photographs of the stained sections were captured using an Eclipse 80i microscope (Nikon).

Regarding “hsa-miR-18a-5p (UAGGUGCAUCUAGUGCAGAUAG; chemistry not given here; listed as Homo sapiens) [small non-coding RNA molecule involved in post-transcriptional regulation of gene expression; Dharmacon]”, the “ADAM10 mRNA expression” value in series [1] (FIG. 13) is on record as “downregulated”. The substance also gave a Notch-related genes downregulated in series [1] (among the affected genes) of 50 genes. In series [1] (of 84 Notch-related genes), the “Notch-related genes affected (fold change>2)” value was 68 genes. The “miR-18a levels compared to scramble microRNA-treated mice” value in series [2] (0.8 nmol/mouse IV or IN, C57BL/6 mice) is “approximately 40 times”. Further, the “retention of miR-18a, IN compared with IV” value in series [2] (0.8 nmol/mouse, IN administration) is given as “longer retention times”. For the same substance, the “time of highest levels of miR-18a in serum and brains, IV compared with IN” value in series [2] (0.8 nmol/mouse, IV administration) was “earlier”. Further, in series [2] (IN administration, 0.8 nmol/mouse), the “amount of microRNA in the brain, times the basal levels of miR-18a” value is “approximately 40 times”. Also, in series [2] (IN administration, brain), the “time required to reach the peak levels” value was 2 h. In series [3], the “MMP9 expression (immunostaining)” value was “did not decrease”. Also, in series [4], the “bone marrow phenotype (adipose cells, megakaryocytes)” value is recorded as “normalized”; the “macrophages in alveoli, lung inflammation” value is reported as “not present”; the polychromasia result was “minimal or not present”; the “spleens, macroscopic, compared with Mgp^+/+ and Mgp^−/+” value is “comparable”. Also, in series [4] (n=3), the “blood levels of hematocrit (HCT)” value was “normalized”, the “blood levels of hemoglobin (HGB)” value is given as “normalized” and the “blood levels of red blood cells (RBC)” value is “normalized”.
